Converted amounts (≈) assume the structure as drawn. Like-named read-outs stand apart in the source and are kept apart here.
How the values were obtained:
[1] = design: method as in earlier work; details: mice, single oral administration as suspension, plasma; ref 27 (Lee et al.); cited from earlier work
[2] = Organ biodistribution of DTG in mice (HPLC); assay type: in vivo; details: mouse, Balb-C mice
Excerpt: (§1) After validating the developed HPLC method, the same was utilized to quantify the drug present in the plasma and organ (lungs, liver, kidney, heart, brain, and uterus) samples collected at predetermined time points. A total of 114 animals (25–30 g) were acquired from the Central Animal Facility (CAF), SASTRA University, Thanjavur after obtaining the ethical approval from Institutional Animal Ethics Committee (IAEC). The animals were randomly divided into four groups (n = 6) for this study. All animals were housed in individual cages in a temperature-controlled facility. The surgical procedures were approved by IAEC at SASTRA University (585/SASTRA/IAEC/RPP). The experiments were performed following the guidelines issued by the Committee for the Purpose of Control and Supervision of Experiments on animals (CPCSEA), Ministry of Environment and Forest, Government of India and Animal Research: Reporting of In Vivo Experiments (ARRIVE). The 2 groups of mice were orally treated with pure DTG and DTG-loaded Chitosan NPs at the dose equivalent to 10 mg/kg[41] along with milk. The 3rd group of animals was treated with DTG at the same dose through an intravenous route to elucidate the absolute bioavailability and the 4th group of animals was reserved as untreated control for comparison. The blood and organ samples were withdrawn from all the experimental mice at 0.5 h, 3.5 h, 7 h, 14 h, 21 h, and 28 h after euthanizing the animal using CO2 inhalation. The concentration of the drug in each sample was determined by the developed HPLC method, followed by the pharmacokinetic parameters and biodistribution pattern evaluation.

[3] = cited from earlier work
blood cells = experiment: Haematological analysis (complete blood cell count) of treated animals; assay type: in vivo; details: Balb-C mice; for Basophils / Eosinophil / HCT / HGB / Lymphocyte / MCH / MCHC / MCV / MPV / Monocytes / Neutrophil / PCT / PDW / PLT / RBC / RDW-CV / RDW-SD / WBC: blood 28 h after administration
Method: The counting was made following the method of Beckman Coulter. It measures the changes in electrical resistance produced by non-conductive particles suspended in an electrolyte. The blood sample from the test animals was collected in EDTA tubes and was further suspended through a small orifice along with an electric current. At the sensing end, the suspended particle displaces its volume of electrolyte which was measured as the voltage pulse by the Beckman Coulter. The height of the voltage pulse in proportion to the volume of the blood cell. The white blood cells were quantified based on the VCS technology, where the individual cell volume (V), conductivity (C), and laser light scatter (S) were measured and the scattergram plotted the cell based on the above measurements.

[4] = In vivo plasma pharmacokinetics in Balb-C mice (HPLC); details: for AUC(0-t): read-out: AUC0–24 h; for k el: read-out: Ke (converted)
Excerpt: The pharmaceutical grade working standards of Dolutegravir were obtained as a gift from MSN Laboratories Hyderabad, India. The standard calibration of the pure drug in the mobile phase (Water: Acetonitrile: Methanol in 20:40:40 ratio with 0.2% formic acid) and mice plasma was plotted using the developed method. The plasma samples of untreated normal Balb/c mice were obtained from the Central Animal Facility, SASTRA Deemed University (Approval ID: 585/IAEC/RPP), and the plasma samples were spiked with known concentrations (1, 2, 3, 4, 5 and 10 µg/mL) of DTG and allowed to incubate at room temperature for 15 min. The detection was carried out at 260 nm with an injection volume of 20 μL, wherein the flow rate of the mobile phase was maintained at 1.0 mL/min at the column temperature of 35 °C. Moreover, the validation of the analytical method was also performed in accordance with the procedure referred to in the International Council on Harmonization (ICH) guidelines.
as §1

[5] = In-vitro drug release in 0.1 N HCl media by dialysis bag method; assay type: physicochemical; details: 0.1 N HCl medium pH 1.2, dialysis bag, 37 °C
Method: The in vitro drug release study of the DTG-loaded Chitosan NPs was compared with the pure DTG in 0.1 N HCl pH 1.2 by dialysis bag method (Dialysis membrane Himedia, cut-off value—12–14 kDa). About 10 mg of pure drug and a similar dose equivalent amount of nanoparticles were taken for the drug release experiments. The test samples were mixed with 0.5 mL of the corresponding media, placed inside the dialysis bag, and immersed in 10 mL media in a vial. The temperature and magnetic stirring speed of the sample were retained at 37 °C ± 2 °C and 200 rpm, respectively throughout the 24 h study period. At every predetermined time point, the 10 mL samples were collected and immediately replaced with the fresh corresponding medium. The concentration of the drug in each sample was quantified by a UV–Visible spectrophotometer. The UV visible spectrophotometer (UV 1800, Shimadzu, Japan) was initialized with λmax of 260 nm. The absorbance of the test solution was recorded using the quartz cuvette (volume-3.5 mL, path length-1.5 cm) and the calculations were made based on the standard calibration curve by following the Beer Lamberts law. […] The drug release modelling was analysed using DD solver Software[36].

[6] = mouse, plasma, 10 mg/kg, intravenous route
[7] = mouse, plasma, oral dose equivalent to 10 mg/kg along with milk
[8] = plasma, oral dose equivalent to 10 mg/kg along with milk

Compound: C[C@@H]1CCO[C@H]2Cn3cc(C(=O)NCc4ccc(F)cc4F)c(=O)c(O)c3C(=O)N12 [DTG, Dolutegravir]
- Cmax [1]: 50000 ng/mL
- AUC ([2]; brain, IV, 10 mg/kg, read-out: AUC of biodistribution of DTG in brain): 2400 ± 330 ng·h/mL
- AUC ([2]; brain, oral with milk, 10 mg/kg equivalent, read-out: AUC of biodistribution of DTG in brain): 2600 ± 500 ng·h/mL
- AUC ([2]; heart, IV, 10 mg/kg, read-out: AUC of biodistribution of DTG in heart): 2000 ± 380 ng·h/mL
- AUC ([2]; heart, oral with milk, 10 mg/kg equivalent, read-out: AUC of biodistribution of DTG in heart): 2100 ± 400 ng·h/mL
- AUC ([2]; kidney, IV, 10 mg/kg, read-out: AUC of biodistribution of DTG in kidney): 3800 ± 1300 ng·h/mL
- AUC ([2]; kidney, oral with milk, 10 mg/kg equivalent, read-out: AUC of biodistribution of DTG in kidney): 2200 ± 400 ng·h/mL
- AUC ([2]; liver, IV, 10 mg/kg, read-out: AUC of biodistribution of DTG in liver): 4600 ± 1200 ng·h/mL
- AUC ([2]; liver, oral with milk, 10 mg/kg equivalent, read-out: AUC of biodistribution of DTG in liver): 7200 ± 1400 ng·h/mL
- AUC ([2]; lungs, IV, 10 mg/kg, read-out: AUC of biodistribution of DTG in lungs): 4300 ± 680 ng·h/mL
- AUC ([2]; lungs, oral with milk, 10 mg/kg equivalent, read-out: AUC of biodistribution of DTG in lungs): 2500 ± 400 ng·h/mL
- AUC ([2]; uterus, IV, 10 mg/kg, read-out: AUC of biodistribution of DTG in uterus): 5500 ± 1200 ng·h/mL
- AUC ([2]; uterus, oral with milk, 10 mg/kg equivalent, read-out: AUC of biodistribution of DTG in uterus): 1500 ± 400 ng·h/mL
- aqueous solubility ([3]; 25 °C, no ref printed at the value): 95 µg/mL (≈ 227 µM)
- BCS class ([3]; ref not given): BCS class II
- Basophils (blood cells; IV): 0.01 ± 0.02 10^3/µL
- Eosinophil (blood cells; IV): 0.06 ± 0.08 10^3/µL
- HCT (blood cells; IV): 55.83 ± 17.67%
- HGB (blood cells; IV): 13.70 ± 2.95 g/dL
- Lymphocyte (blood cells; IV): 12.83 ± 8.46 10^3/µL
- MCH (blood cells; IV): 16.23 ± 1.46 pg
- MCHC (blood cells; IV): 25.27 ± 3.33 g/dL
- MCV (blood cells; IV): 64.47 ± 2.75 fL
- MPV (blood cells; IV): 6.03 ± 0.15 fL
- Monocytes (blood cells; IV): 0.10 ± 0.07 10^3/µL
- Neutrophil (blood cells; IV): 5.15 ± 1.74 10^3/µL
- PCT (blood cells; IV): 0.50 ± 0.18%
- PDW (blood cells; IV): 15.23 ± 0.32
- PLT (blood cells; IV): 617.00 ± 27.89 10^3/µL
- RBC (blood cells; IV): 8.60 ± 2.47 10^6/µL
- RDW-CV (blood cells; IV): 15.37 ± 1.11%
- RDW-SD (blood cells; IV): 40.60 ± 4.25 fL
- WBC (blood cells; IV): 18.14 ± 10.24 10^3/µL
- Basophils (blood cells; oral with milk): 0.00 10^3/µL
- Eosinophil (blood cells; oral with milk): 0.04 ± 0.03 10^3/µL
- HCT (blood cells; oral with milk): 63.77 ± 1.96%
- HGB (blood cells; oral with milk): 15.10 ± 0.72 g/dL
- Lymphocyte (blood cells; oral with milk): 12.30 ± 1.67 10^3/µL
- MCH (blood cells; oral with milk): 15.57 ± 0.15 pg
- MCHC (blood cells; oral with milk): 23.67 ± 0.15 g/dL
- MCV (blood cells; oral with milk): 65.90 ± 4.10 fL
- MPV (blood cells; oral with milk): 5.97 ± .06 fL
- Monocytes (blood cells; oral with milk): 0.15 ± 0.06 10^3/µL
- Neutrophil (blood cells; oral with milk): 5.32 ± 1.71 10^3/µL
- PCT (blood cells; oral with milk): 0.52 ± 0.07%
- PDW (blood cells; oral with milk): 15.17 ± 0.15
- PLT (blood cells; oral with milk): 674.67 ± 42.91 10^3/µL
- RBC (blood cells; oral with milk): 9.69 ± 0.48 10^6/µL
- RDW-CV (blood cells; oral with milk): 15.47 ± 1.58%
- RDW-SD (blood cells; oral with milk): 41.73 ± .90 fL
- WBC (blood cells; oral with milk): 17.81 ± 3.38 10^3/µL
- toxicity to the blood cells (haematology versus untreated control) (blood cells; oral and IV administration, no statistically significant difference to control): non-toxic to the blood cells
- Cmax ([4]; Balb-C, mouse, plasma, iv, 10 mg/kg, plasma, 10 mg/kg, intravenous route, read-out: Cmax): 29300 ± 4010 ng/mL
- Cmax ([4]; Balb-C, mouse, plasma, po, 10 mg/kg, plasma, oral dose equivalent to 10 mg/kg along with milk, read-out: Cmax): 29300 ± 4010 ng/mL
- MRT [4, 6]: 12.07 ± 0.05 h
- Tmax [4, 6]: 7 h
- half-life [4, 6]: 10.5 ± 1.1 h
- AUC(0-t) [4, 6]: 411000 ± 91000 ng·h/mL
- clearance ([4]; mouse, plasma, 10 mg/kg, intravenous route, read-out: Clearance (converted)): 8.17 mL/min
- k el [4, 6]: 1.81e-05 s⁻¹
- Vd ([4]; mouse, plasma, 10 mg/kg, intravenous route, read-out: Vd): 1.87 ± 0.81 L/kg
- AUC ([4]; mouse, plasma, 10 mg/kg, oral): 405000 ± 7000 ng·h/mL
- MRT [4, 7]: 10.1 ± 0.93 h
- Tmax [4, 7]: 7 h
- half-life [4, 7]: 11.7 ± 1.6 h
- AUC(0-t) [4, 7]: 405000 ± 7000 ng·h/mL
- k el [4, 7]: 1.64e-05 s⁻¹
- volume of distribution (Vd) ([4]; orally administered): 4.36 ± 0.78 L
- Ka ([4]; plasma, 10 mg/kg, intravenous route): 0.26 h⁻¹
- Cmax [4, 8]: 30150 ± 8060 ng/mL
- Ka [4, 8]: 0.48 h⁻¹
- Vd [4, 8]: 4.36 ± 0.78 L/kg
- clearance [4, 8]: 8 ± 5.5 mL/min
- time taken to release 80% of the drug (T80) [5]: 20 h
